Paper PMC12396409, “Screening and hit evaluation of a microbial metabolite library against the pathogenic Plasmodium falciparum and Toxoplasma gondii parasites” (International Journal for Parasitology: Drugs and Drug …, 2025)
Like-named read-outs stand apart in the source and are kept apart here.

Experiments:
[1] = tested on: P. falciparum 3D7 parasites; test: P. falciparum growth inhibition assay, 1-cycle (72 h treatment), SYBR DNA staining (library screen at 2 μg/mL and dose-response); assay type: cell-based, Plasmodium falciparum; conditions: for activity at 2 µg/mL: Plasmodium falciparum
[2] = tested on: P. falciparum 3D7 parasites; test: P. falciparum growth inhibition assay, 2-cycle (120 h treatment), delayed-death screen and dose-response; assay type: cell-based, Plasmodium falciparum; conditions: for activity at 2 µg/mL: Plasmodium falciparum
[3] = tested on: T. gondii RH strain (RH-Tub-eYFP) tachyzoites; test: microbe, parasite or virus in culture; assay type: cell-based, Toxoplasma gondii; conditions: for percent parasite growth at 2 µg/mL: Toxoplasma gondii
[4] = 3D7, P. falciparum, 72 h, screen at 2 μg/mL, replicate 1, read-out: Pf_72h_%Growth_Rep1
[5] = 3D7, P. falciparum, 72 h, screen at 2 μg/mL, replicate 2, read-out: Pf_72h_%Growth_Rep2
[6] = 3D7, P. falciparum, 120 h, screen at 2 μg/mL, replicate 1, read-out: Pf_120h_%Growth_Rep1
[7] = 3D7, P. falciparum, 120 h, screen at 2 μg/mL, replicate 2, read-out: Pf_120h_%Growth_Rep2
[8] = 72 h, T. gondii, 72 h, screen at 2 μg/mL, replicate 1, read-out: Tg_72h_%Growth_Rep1
[9] = 72 h, T. gondii, 72 h, screen at 2 μg/mL, replicate 2, read-out: Tg_72h_%Growth_Rep2
[10] = 3D7, 72 h, P. falciparum, 72 h, screen at 2 μg/mL, replicate 1, read-out: Pf_72h_%Growth_Rep1
[11] = 3D7, 72 h, P. falciparum, 72 h, screen at 2 μg/mL, replicate 2, read-out: Pf_72h_%Growth_Rep2
[12] = 3D7, 120 h, P. falciparum, 120 h, screen at 2 μg/mL, replicate 1, read-out: Pf_120h_%Growth_Rep1
[13] = 3D7, 120 h, P. falciparum, 120 h, screen at 2 μg/mL, replicate 2, read-out: Pf_120h_%Growth_Rep2
[14] = 3D7, library screen at 2 μg/mL, 72 h, % growth, replicate 1, read-out: Pf_72h_%Growth_Rep1
[15] = 3D7, library screen at 2 μg/mL, 72 h, % growth, replicate 2, read-out: Pf_72h_%Growth_Rep2
[16] = 3D7, library screen at 2 μg/mL, 120 h, % growth, replicate 1, read-out: Pf_120h_%Growth_Rep1
[17] = 3D7, library screen at 2 μg/mL, 120 h, % growth, replicate 2, read-out: Pf_120h_%Growth_Rep2
[18] = 72 h, library screen at 2 μg/mL, 72 h, % growth, replicate 1, read-out: Tg_72h_%Growth_Rep1
[19] = 72 h, library screen at 2 μg/mL, 72 h, % growth, replicate 2, read-out: Tg_72h_%Growth_Rep2

Compound: CO[C@H]1C[C@@H]2CC[C@@H](C)[C@@](O)(O2)C(=O)C(=O)N2CCCC[C@H]2C(=O)O[C@H]([C@H](C)C[C@@H]2CC[C@H](n3cnnn3)[C@H](OC)C2)CC(=O)[C@H](C)/C=C(\C)[C@@H](O)[C@@H](OC)C(=O)[C@H](C)C[C@H](C)/C=C/C=C/C=C/1C [Zotarolimus]
- activity at 2 µg/mL [1, 4]: 75.7%
- activity at 2 µg/mL [1, 5]: 88.3%
- activity at 2 µg/mL [2, 6]: 97.5%
- activity at 2 µg/mL [2, 7]: 77.1%
- percent parasite growth at 2 µg/mL [3, 8]: 120%
- percent parasite growth at 2 µg/mL [3, 9]: 77.8%

Compound: CN(C)c1cc(NC(=O)CNC(C)(C)C)c(O)c2c1C[C@H]1C[C@H]3[C@H](N(C)C)C(O)=C(C(N)=O)C(=O)[C@@]3(O)C(O)=C1C2=O [Tigecycline]
- activity at 2 µg/mL [1, 4]: 88.2%
- activity at 2 µg/mL [1, 5]: 87.6%
- activity at 2 µg/mL [2, 6]: 106%
- activity at 2 µg/mL [2, 7]: 93.4%
- percent parasite growth at 2 µg/mL [3, 8]: 144%
- percent parasite growth at 2 µg/mL [3, 9]: 97%

Compound: O=C(O)/C=C/c1c[nH]cn1 [Urocanic acid]
- activity at 2 µg/mL [1, 10]: 79.2%
- activity at 2 µg/mL [1, 11]: 89.3%
- activity at 2 µg/mL [2, 12]: 81.3%
- activity at 2 µg/mL [2, 13]: 51.9%
- percent parasite growth at 2 µg/mL [3, 8]: 81%
- percent parasite growth at 2 µg/mL [3, 9]: 70.9%

Compound: C[C@H]1O[C@H](O[C@H]2[C@H](O)[C@@H](O)[C@@H](O[C@H]3[C@H](O)[C@@H](O)C(O)O[C@@H]3CO)O[C@@H]2CO)[C@H](O)[C@@H](O)[C@@H]1N[C@H]1C=C(CO)[C@@H](O)[C@H](O)[C@H]1O (stereo partly drawn) [Acarbose]
- activity at 2 µg/mL [1, 14]: 83.3%
- activity at 2 µg/mL [1, 15]: 87.2%
- activity at 2 µg/mL [2, 16]: 85.5%
- activity at 2 µg/mL [2, 17]: 82.2%
- percent parasite growth at 2 µg/mL [3, 18]: 105%
- percent parasite growth at 2 µg/mL [3, 19]: 86.3%

Compound: CO[C@H]1C[C@@H]2CC[C@@H](C)[C@@](O)(O2)C(=O)C(=O)N2CCCC[C@H]2C(=O)O[C@H]([C@H](C)C[C@@H]2CC[C@@H](OCCO)[C@H](OC)C2)CC(=O)[C@H](C)/C=C(\C)[C@@H](O)[C@@H](OC)C(=O)[C@H](C)C[C@H](C)/C=C/C=C/C=C/1C [Everolimus]
- activity at 2 µg/mL [1, 14]: 71.5%
- activity at 2 µg/mL [1, 15]: 67.8%
- activity at 2 µg/mL [2, 16]: 72.3%
- activity at 2 µg/mL [2, 17]: 69.3%
- percent parasite growth at 2 µg/mL [3, 18]: 40.6%
- percent parasite growth at 2 µg/mL [3, 19]: 79.1%

Compound: CC=C1CN(C)C2Cc3c([nH]c4ccccc34)C(c3cc4[nH]c5c(c4cc3OC)CCN3CC4CC(CC)C3C5(C(=O)OC)C4)CC1C2C(=O)OC (stereo not drawn) [Voacamine]
- activity at 2 µg/mL [1, 10]: 56.2%
- activity at 2 µg/mL [1, 11]: 62%
- activity at 2 µg/mL [2, 12]: 106%
- activity at 2 µg/mL [2, 13]: 45.2%
- percent parasite growth at 2 µg/mL [3, 8]: 97%
- percent parasite growth at 2 µg/mL [3, 9]: 101%

Compound: Chaetomin
- Pf_72h_%Growth_Rep1 ([1]; P. falciparum, 72 h, screen at 2 μg/mL, replicate 1): 58.72%
- Pf_72h_%Growth_Rep2 ([1]; P. falciparum, 72 h, screen at 2 μg/mL, replicate 2): 55.68%
- Pf_120h_%Growth_Rep1 ([2]; P. falciparum, 120 h, screen at 2 μg/mL, replicate 1): 45.75%
- Pf_120h_%Growth_Rep2 ([2]; P. falciparum, 120 h, screen at 2 μg/mL, replicate 2): 45.66%
- Tg_72h_%Growth_Rep1 ([3]; T. gondii, 72 h, screen at 2 μg/mL, replicate 1): 114.47%
- Tg_72h_%Growth_Rep2 ([3]; T. gondii, 72 h, screen at 2 μg/mL, replicate 2): 90.87%

Compound: Aflatoxin G2
- Pf_72h_%Growth_Rep1 [1]: 83.21%
- Pf_72h_%Growth_Rep2 [1]: 86.33%
- Pf_120h_%Growth_Rep1 [2]: 98.15%
- Pf_120h_%Growth_Rep2 [2]: 97.03%
- Tg_72h_%Growth_Rep1 [3]: 134.03%
- Tg_72h_%Growth_Rep2 [3]: 98.49%
